Results: patent US6608082B1, “Treatment of erectile dysfunction using isoquinoline compound melanocortin receptor ligands” (Lion Bioscience AG, priority 1998, dated 2003)
Read-outs that look alike come from different tables or passages of the source.

Tests used:
[1] = target: T1, MCR-1 (Homo sapiens, UniProt Q01726); test: Melanocortin receptor binding assay, competition with 125I-HP 467, HEK 293 cells expressing hMCR-1; conditions: inhibition of binding of 125I-HP 467, HEK 293 cells expressing MCR-1; for IC50: read-out: MC-1 IC50
T1 construct: expressed in transfected cells; host or cells: HEK 293
T1 sequence (Q01726 whole entry): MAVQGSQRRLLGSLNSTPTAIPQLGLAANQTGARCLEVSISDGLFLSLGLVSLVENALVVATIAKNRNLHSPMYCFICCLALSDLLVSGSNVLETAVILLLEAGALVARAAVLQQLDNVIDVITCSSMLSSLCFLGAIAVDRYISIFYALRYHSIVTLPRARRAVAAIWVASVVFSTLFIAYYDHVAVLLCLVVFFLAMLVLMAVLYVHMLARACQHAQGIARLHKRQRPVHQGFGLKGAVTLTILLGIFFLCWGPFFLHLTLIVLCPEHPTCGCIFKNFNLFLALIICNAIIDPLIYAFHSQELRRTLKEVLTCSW
How it was run: (§1)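 Intact-cell competition binding, 2.5 hr at 37 °C, in PBS/10% calf serum/1 mM CaCl2; hMCR-4 cells at 4×10^3 per tube, hMCR-1 cells at 2×10^4 per tube. Filtration on BSA/CaCl2-soaked GF/B, cold 50 mM Tris pH 7.4 washes, scintillation count.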

[2] = target: T2, MCR-4 (Homo sapiens, UniProt P32245); test: Melanocortin receptor binding assay, competition with 125I-HP 467, HEK 293 cells expressing hMCR-4; conditions: inhibition of binding of 125I-HP 467, HEK 293 cells expressing MCR-4, read-out: MC-4 IC50
T2 construct: expressed in transfected cells; host or cells: HEK 293
T2 sequence (P32245 whole entry): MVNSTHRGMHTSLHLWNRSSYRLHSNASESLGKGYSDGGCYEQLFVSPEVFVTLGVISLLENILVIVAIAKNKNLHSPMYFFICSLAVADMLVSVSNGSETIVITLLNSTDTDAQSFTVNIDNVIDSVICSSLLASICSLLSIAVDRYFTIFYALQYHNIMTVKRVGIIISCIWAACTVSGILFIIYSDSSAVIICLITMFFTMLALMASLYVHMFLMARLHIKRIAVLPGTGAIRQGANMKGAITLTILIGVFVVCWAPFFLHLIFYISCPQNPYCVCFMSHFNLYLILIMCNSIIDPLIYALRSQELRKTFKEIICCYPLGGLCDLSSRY
How it was run: as §1

IC50 [1] [nM] | IC50 [2] [nM] | IC50 ([1]; TRG 2414 library) [nM] | IC50 ([2]; TRG 2414 library) [nM] | MC-1 IC50 ([1]; TRG 2414 library) | SMILES
70 | 9590 | – | – | – | CCCCNc1ccc(C2C(CN)c3ccccc3CN2CCCC(CN)NCC)cc1 (centres unmarked) [TRG 2411-218]
100 | 2970 | – | – | – | CCCCNc1ccc(C2C(CN)c3ccccc3CN2CCCC(CN)NCCCC)cc1 (centres unmarked) [TRG 2411-219]
310 | 320 | – | – | – | CCOc1ccc(C2C(CNCCc3ccccc3)c3ccccc3CN2CCCCC(CN)NC)cc1 (centres unmarked) [TRG 2412-4]
90 | 1480 | – | – | – | CCCCCNc1ccc(C2C(CNCCc3ccccc3)c3ccccc3CN2CCCC(CN)NC)cc1 (centres unmarked) [TRG 2412-16]
270 | 1150 | – | – | – | CCCCCNc1ccc(C2C(CNCCc3ccccc3)c3ccccc3CN2CCCC(CN)NCCc2ccccc2)cc1 (centres unmarked) [TRG 2412-17]
170 | 230 | – | – | – | CCOc1ccc(C2C(CNCCc3ccccc3)c3ccccc3CN2CCCC(CN)NCc2ccccc2)cc1 (centres unmarked) [TRG 2412-21]
160 | 1060 | – | – | – | CCCCOc1ccc(C2C(CNCCc3ccccc3)c3ccccc3CN2CCCC(CN)NC)cc1 (centres unmarked) [TRG 2412-25]
620 | 1060 | – | – | – | CCCCCc1ccc(C2C(CNCCc3ccccc3)c3ccccc3CN2CCCC(CN)NCc2ccccc2)cc1 (centres unmarked) [TRG 2412-30]
260 | 1340 | – | – | – | CCNc1ccc(C2C(CNCCc3ccccc3)c3ccccc3CN2CCCC(CN)NCCc2ccccc2)cc1 (centres unmarked) [TRG 2413-9]
1270 | 400 | – | – | – | CNC(CN)CCCN1Cc2ccccc2C(CNCCc2ccccc2)C1c1ccc([N+](=O)[O-])cc1 (centres unmarked) [TRG 2413-16]
– | – | 2930 | 4880 | – | COc1ccccc1CCNCC1c2ccccc2CN(CCCCC(CN)NCCc2ccccc2)C1c1ccc(Cl)cc1Cl (centres unmarked) [TRG 2414-10]
– | – | 11700 | 34400 | – | COc1ccccc1CCNCC1c2ccccc2CN(CCCCC(CN)NCC(C)c2ccc(CC(C)C)cc2)C1c1ccc(Cl)cc1Cl (centres unmarked) [TRG 2414-12]
– | – | 2180 | 1180 | – | NCC(N)CCCCN1Cc2ccccc2C(CNCCc2cccc(Cl)c2)C1c1ccc(Cl)cc1Cl (centres unmarked) [TRG 2414-13]
– | – | 3230 | 2920 | – | NCC(CCCCN1Cc2ccccc2C(CNCCc2cccc(Cl)c2)C1c1ccc(Cl)cc1Cl)NCCc1ccccc1 (centres unmarked) [TRG 2414-14]
– | – | 6410 | 6930 | – | NC[C@H](CCCCN1Cc2ccccc2C(CNCCc2cccc(Cl)c2)C1c1ccc(Cl)cc1Cl)NCc1ccccc1 (some centres unmarked) [TRG 2414-15]
– | – | – | 33400 | no fit | CC(C)Cc1ccc(C(C)CNC(CN)CCCCN2Cc3ccccc3C(CNCCc3cccc(Cl)c3)C2c2ccc(Cl)cc2Cl)cc1 (centres unmarked) [TRG 2414-16]
– | – | 3080 | 1630 | – | COc1cccc(CNCC2c3ccccc3CN(CCCCC(N)CN)C2c2ccc(Cl)cc2Cl)c1 (centres unmarked) [TRG 2414-17]
– | – | 4970 | 8220 | – | COc1cccc(CNCC2c3ccccc3CN(CCCCC(CN)NCCc3ccccc3)C2c2ccc(Cl)cc2Cl)c1 (centres unmarked) [TRG 2414-18]
– | – | 3270 | 7310 | – | COc1cccc(CNCC2c3ccccc3CN(CCCCC(CN)NCc3ccccc3)C2c2ccc(Cl)cc2Cl)c1 (centres unmarked) [TRG 2414-19]
– | – | 27400 | 38100 | – | COc1cccc(CNCC2c3ccccc3CN(CCCCC(CN)NCC(C)c3ccc(CC(C)C)cc3)C2c2ccc(Cl)cc2Cl)c1 (centres unmarked) [TRG 2414-20]
– | – | 1120 | 1570 | – | COc1ccc(CNCC2c3ccccc3CN(CCCCC(N)CN)C2c2ccc(Cl)cc2Cl)cc1 (centres unmarked) [TRG 2414-21]
– | – | 3560 | 5020 | – | COc1ccc(CNCC2c3ccccc3CN(CCCCC(CN)NCCc3ccccc3)C2c2ccc(Cl)cc2Cl)cc1 (centres unmarked) [TRG 2414-22]
– | – | 3190 | 6140 | – | COc1ccc(CNCC2c3ccccc3CN(CCCCC(CN)NCc3ccccc3)C2c2ccc(Cl)cc2Cl)cc1 (centres unmarked) [TRG 2414-23]
– | – | 25500 | 37500 | – | COc1ccc(CNCC2c3ccccc3CN(CCCCC(CN)NCC(C)c3ccc(CC(C)C)cc3)C2c2ccc(Cl)cc2Cl)cc1 (centres unmarked) [TRG 2414-24]
– | – | 1390 | 520 | – | COc1ccc(CCNCC2c3ccccc3CN(CCCC[C@H](N)CN)C2c2ccc(Cl)cc2Cl)cc1 (some centres unmarked) [TRG 2414-25]
